The values below come from ChEMBL document CHEMBL1148275, “Discovery of thiophene-2-carboxylic acids as potent inhibitors of HCV NS5B polymerase and HCV subgenomic RNA replication. Part 1: Sulfonamides” (Bioorg Med Chem Lett, 2004).

The target in test [1] is Genome polyprotein (Hepatitis C virus genotype 1a (isolate 1) (HCV), UniProt P26664). Nature of the test: Inhibition of HCV NS5B polymerase.
Test [2] has as its system Huh-7. The experiment in a line: Concentration required to suppress [3H]thymidine uptake by 50% in Huh-7 cells. The conditions noted are these: Homo sapiens. It counts as functional.
The test system of test [3] is Huh-7. The experiment in a line: Inhibitory concentration against Huh-7 human hepatoma cell line that supports replication of subgenomic HCV RNA replicons (replicon cell line). It counts as functional, cell-based.

pIC50: −log10 of the molar value.

Genome polyprotein, sequence (P26664 2421-3011 limits assumed): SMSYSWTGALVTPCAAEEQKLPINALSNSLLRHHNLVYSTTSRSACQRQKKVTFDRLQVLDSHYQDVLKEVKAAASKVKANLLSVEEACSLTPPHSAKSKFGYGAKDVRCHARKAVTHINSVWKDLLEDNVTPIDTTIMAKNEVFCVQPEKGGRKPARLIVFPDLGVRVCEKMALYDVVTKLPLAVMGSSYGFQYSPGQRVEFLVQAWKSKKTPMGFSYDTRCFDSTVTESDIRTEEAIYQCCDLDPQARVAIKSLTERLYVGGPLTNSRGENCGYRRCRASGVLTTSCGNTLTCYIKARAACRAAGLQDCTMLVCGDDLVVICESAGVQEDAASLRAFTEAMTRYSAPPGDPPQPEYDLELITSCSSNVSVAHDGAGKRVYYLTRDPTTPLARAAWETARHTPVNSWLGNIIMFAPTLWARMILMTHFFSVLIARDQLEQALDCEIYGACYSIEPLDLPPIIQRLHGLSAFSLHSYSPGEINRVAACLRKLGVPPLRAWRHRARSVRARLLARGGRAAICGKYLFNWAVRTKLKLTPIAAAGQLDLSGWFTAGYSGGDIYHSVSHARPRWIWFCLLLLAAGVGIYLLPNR

One may read the pIC50 as the IC50 on a negative log10 scale, so that one unit is a factor of ten. With `Cc1ccccc1S(=O)(=O)Nc1sc(-c2ccccc2)cc1C(=O)O`, in test [1], the negative logarithm of the IC50 (pIC50) is 4.70.

One may read the CC50 as the concentration that lowers cell viability or growth by half. Low values mean harm at low concentration, high ones better tolerance by the cells. As for `Cc1cc(S(=O)(=O)Nc2cc(-c3ccccc3)sc2C(=O)O)c(C)cc1Cl`, the figures for the pIC50 in test [1] and in test [3] were 5.27 and 4.85, respectively. The molecule also gave a CC50 in test [2] of 80 µM.

In test [1], `O=C(O)C(Cc1ccccc1)N(Cc1cccc(C(F)(F)F)c1)C(=O)c1ccc(Cl)cc1Cl` (stereo not given) showed a pIC50 of 5.74.

With `O=C(O)c1sc(-c2ccccc2)cc1NS(=O)(=O)c1ccc(Cl)cc1`, the pIC50 is 5.39 in test [1] and 4.11 in test [3]. The molecule also registered a CC50 in test [2] of 92 µM.

With `Cc1ccccc1S(=O)(=O)Nc1cc(-c2ccc(S(C)(=O)=O)cc2)sc1C(=O)O`, the pIC50 in test [1] was 5.74; in test [3], < 4.00. In addition, the CC50 in test [2] is > 200 µM.

`CC(=O)c1ccc(-c2cc(NS(=O)(=O)c3ccccc3C)c(C(=O)O)s2)cc1`: the values for the pIC50 in test [1] and in test [3] were 5.85 and 4.92, respectively. In test [2], this molecule gave a CC50 of 147 µM.

For `O=C(Nc1ccc(Cl)cc1)Nc1cc(-c2ccccc2)sc1C(=O)O`, in test [1], the pIC50 was < 4.30.

Take `Cc1ccccc1C(=O)Nc1cc(-c2ccccc2)sc1C(=O)O`: the pIC50 in test [1] was 4.85.

The molecule `Cc1ccc(S(=O)(=O)Nc2cc(-c3ccccc3)sc2C(=O)O)c(C)c1` had a pIC50 in test [1] of 6.00. Further, half-maximal cytotoxicity in test [2] (CC50) was put at 57 µM.

In the case of `Cc1ccc(S(=O)(=O)Nc2cc(-c3ccccc3)sc2C(=O)O)cc1`, the pIC50 in test [1] was 5.34; in test [3], 4.48. Besides, the CC50 in test [2] was 79 µM.

As to `Cc1ccc(C)c(S(=O)(=O)Nc2cc(-c3ccccc3)sc2C(=O)O)c1`, the pIC50 is 4.89 in test [1] and 4.96 in test [3]. It took 24 µM to reach half-maximal cytotoxicity in test [2] (CC50).

Molecule `Cc1ccc(C(=O)Nc2cc(-c3ccccc3)sc2C(=O)O)cc1` showed a pIC50 in test [1] of 4.92.

In the case of `O=C(Nc1cc(-c2ccccc2)sc1C(=O)O)Oc1ccc(Cl)cc1`, the pIC50 in test [1] is 4.89.

As to `Cc1ccccc1S(=O)(=O)Nc1cc(-c2ccccc2)sc1C(=O)O`, the pIC50 is 5.28 in test [1] and 4.62 in test [3]. The CC50 in test [2] was 76 µM.

Consider `Cc1cccc(S(=O)(=O)Nc2cc(-c3ccccc3)sc2C(=O)O)c1`, for which the pIC50 in test [1] was 5.13; in test [3], 4.00. The molecule also gave a CC50 in test [2] of 112 µM.

Take `Cc1ccccc1S(=O)(=O)Nc1cc(C(=O)O)sc1-c1ccccc1`: in test [1], the pIC50 is < 4.30.

As for `CC(=O)c1ccc(-c2cc(NS(=O)(=O)c3ccc(C)cc3C)c(C(=O)O)s2)cc1`, the negative logarithm of the IC50 (pIC50) is 6.41 in test [1] and 5.10 in test [3]. Further, the CC50 in test [2] was 100 µM.

Take `Cc1cc(S(=O)(=O)Nc2cc(-c3ccccc3)sc2C(N)=O)c(C)cc1Cl`: in test [1], the pIC50 is 4.85.

As for `Cc1cc(Cl)ccc1S(=O)(=O)Nc1cc(-c2ccccc2)sc1C(=O)O`, the pIC50 in test [1] is 6.12; in test [3], 4.89. In test [2], this molecule registered a CC50 of 54 µM.
